From ChEMBL document CHEMBL5291721, “A preclinical secondary pharmacology resource illuminates target-adverse drug reaction associations of marketed drugs” (Nat Commun, 2023)

Key:
Adenosine receptor A1 = target: T1, Adenosine receptor A1 (Homo sapiens, UniProt P30542)
T1 sequence (P30542 whole entry): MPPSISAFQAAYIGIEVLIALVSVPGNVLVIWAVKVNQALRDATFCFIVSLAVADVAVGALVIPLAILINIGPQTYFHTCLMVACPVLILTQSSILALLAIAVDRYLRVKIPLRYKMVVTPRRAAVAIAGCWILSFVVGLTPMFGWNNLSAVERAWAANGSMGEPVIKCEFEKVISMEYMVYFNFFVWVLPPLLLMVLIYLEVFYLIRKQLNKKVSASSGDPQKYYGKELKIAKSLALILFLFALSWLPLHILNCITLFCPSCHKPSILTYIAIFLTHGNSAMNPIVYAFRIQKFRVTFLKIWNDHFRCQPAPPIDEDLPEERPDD

Adenosine receptor A2a = Adenosine receptor A2a (Homo sapiens, UniProt P29274)
Chain of Adenosine receptor A2a (P29274 whole entry): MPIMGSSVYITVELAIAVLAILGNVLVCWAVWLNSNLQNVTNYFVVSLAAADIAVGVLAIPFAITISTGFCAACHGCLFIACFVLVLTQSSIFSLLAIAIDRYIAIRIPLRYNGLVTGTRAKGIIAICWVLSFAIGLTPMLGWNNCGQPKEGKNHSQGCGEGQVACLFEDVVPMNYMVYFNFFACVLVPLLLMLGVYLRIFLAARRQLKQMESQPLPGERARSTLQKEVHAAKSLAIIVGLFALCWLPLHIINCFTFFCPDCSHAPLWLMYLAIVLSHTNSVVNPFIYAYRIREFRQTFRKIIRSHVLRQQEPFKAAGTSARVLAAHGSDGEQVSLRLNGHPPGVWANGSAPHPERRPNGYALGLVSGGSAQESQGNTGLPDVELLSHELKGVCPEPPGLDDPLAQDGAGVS

Cannabinoid receptor 1 = Cannabinoid receptor 1 (Homo sapiens, UniProt P21554)
Chain of Cannabinoid receptor 1 (P21554 whole entry): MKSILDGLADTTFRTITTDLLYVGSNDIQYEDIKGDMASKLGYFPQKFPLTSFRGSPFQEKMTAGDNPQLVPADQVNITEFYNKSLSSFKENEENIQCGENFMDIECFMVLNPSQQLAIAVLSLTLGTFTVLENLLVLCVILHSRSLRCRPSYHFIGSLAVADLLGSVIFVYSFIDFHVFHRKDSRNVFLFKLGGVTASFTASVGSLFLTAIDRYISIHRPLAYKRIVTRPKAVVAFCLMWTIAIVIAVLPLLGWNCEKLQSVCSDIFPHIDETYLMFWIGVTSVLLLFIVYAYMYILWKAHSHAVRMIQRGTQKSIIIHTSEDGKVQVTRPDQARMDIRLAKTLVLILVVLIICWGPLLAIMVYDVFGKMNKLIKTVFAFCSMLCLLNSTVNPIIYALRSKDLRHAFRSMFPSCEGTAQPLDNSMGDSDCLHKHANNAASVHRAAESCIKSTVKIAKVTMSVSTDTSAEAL

D(1A) dopamine receptor = D(1A) dopamine receptor (Homo sapiens, UniProt P21728); assay type: functional, cell-based
Chain of D(1A) dopamine receptor (P21728 whole entry): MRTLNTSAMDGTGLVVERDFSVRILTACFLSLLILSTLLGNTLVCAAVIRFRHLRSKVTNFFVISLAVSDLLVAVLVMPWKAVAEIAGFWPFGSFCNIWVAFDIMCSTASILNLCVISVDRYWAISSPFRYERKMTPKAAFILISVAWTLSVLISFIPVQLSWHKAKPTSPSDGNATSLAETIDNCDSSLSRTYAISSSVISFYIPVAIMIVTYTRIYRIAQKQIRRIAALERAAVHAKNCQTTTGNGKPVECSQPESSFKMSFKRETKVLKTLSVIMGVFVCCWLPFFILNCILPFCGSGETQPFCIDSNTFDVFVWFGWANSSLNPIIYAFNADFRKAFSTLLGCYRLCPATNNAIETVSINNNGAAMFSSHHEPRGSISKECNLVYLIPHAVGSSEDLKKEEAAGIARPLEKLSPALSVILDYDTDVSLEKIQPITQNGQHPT

Estrogen receptor = target: T2, Estrogen receptor (Homo sapiens, UniProt P03372)
T2 sequence (P03372 whole entry): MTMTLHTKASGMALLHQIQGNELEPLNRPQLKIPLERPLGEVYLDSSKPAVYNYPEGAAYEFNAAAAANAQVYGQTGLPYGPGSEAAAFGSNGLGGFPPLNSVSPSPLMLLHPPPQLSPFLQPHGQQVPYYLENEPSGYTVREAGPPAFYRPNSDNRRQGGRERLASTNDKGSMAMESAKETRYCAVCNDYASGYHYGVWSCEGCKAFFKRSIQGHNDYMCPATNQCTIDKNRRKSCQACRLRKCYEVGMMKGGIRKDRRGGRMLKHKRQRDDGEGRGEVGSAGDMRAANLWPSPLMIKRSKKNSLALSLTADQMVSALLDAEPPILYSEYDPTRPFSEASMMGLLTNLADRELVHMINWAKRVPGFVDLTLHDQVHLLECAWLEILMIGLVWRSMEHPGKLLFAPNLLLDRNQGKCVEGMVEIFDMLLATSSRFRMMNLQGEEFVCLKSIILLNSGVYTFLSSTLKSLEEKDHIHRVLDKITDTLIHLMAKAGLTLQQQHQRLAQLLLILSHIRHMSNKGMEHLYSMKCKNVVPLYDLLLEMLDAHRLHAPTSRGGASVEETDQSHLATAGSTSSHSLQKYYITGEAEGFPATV

[1] = target: T3, 5-hydroxytryptamine receptor 1A (Homo sapiens, UniProt P08908); assay type: functional, cell-based
T3 sequence (P08908 whole entry): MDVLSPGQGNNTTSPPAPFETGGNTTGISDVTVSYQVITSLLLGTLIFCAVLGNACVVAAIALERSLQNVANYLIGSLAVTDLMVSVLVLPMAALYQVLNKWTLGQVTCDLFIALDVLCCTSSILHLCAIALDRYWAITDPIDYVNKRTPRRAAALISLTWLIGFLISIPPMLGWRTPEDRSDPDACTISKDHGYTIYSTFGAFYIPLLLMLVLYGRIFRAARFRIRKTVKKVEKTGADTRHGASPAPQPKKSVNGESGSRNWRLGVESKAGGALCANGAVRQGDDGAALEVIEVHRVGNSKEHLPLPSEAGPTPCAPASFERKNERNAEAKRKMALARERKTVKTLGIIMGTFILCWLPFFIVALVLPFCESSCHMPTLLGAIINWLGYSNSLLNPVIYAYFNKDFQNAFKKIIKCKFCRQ

[2] = target: 5-hydroxytryptamine receptor 2A (Homo sapiens, UniProt P28223); assay type: functional, cell-based
Chain of 5-hydroxytryptamine receptor 2A (P28223 whole entry): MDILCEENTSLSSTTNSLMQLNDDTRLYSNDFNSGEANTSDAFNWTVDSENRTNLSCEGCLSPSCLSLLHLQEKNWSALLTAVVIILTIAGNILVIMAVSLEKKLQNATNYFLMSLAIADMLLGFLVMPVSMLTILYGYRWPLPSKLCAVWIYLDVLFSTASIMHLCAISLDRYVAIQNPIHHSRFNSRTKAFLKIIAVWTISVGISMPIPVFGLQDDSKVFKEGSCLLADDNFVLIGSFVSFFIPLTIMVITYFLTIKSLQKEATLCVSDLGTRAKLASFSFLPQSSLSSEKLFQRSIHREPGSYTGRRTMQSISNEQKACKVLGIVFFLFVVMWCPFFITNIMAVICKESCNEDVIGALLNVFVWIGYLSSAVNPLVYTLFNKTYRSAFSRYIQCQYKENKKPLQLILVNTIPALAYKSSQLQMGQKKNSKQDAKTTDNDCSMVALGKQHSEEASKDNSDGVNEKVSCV

[3] = target: 5-hydroxytryptamine receptor 2B (Homo sapiens, UniProt P41595); assay type: functional, cell-based
Chain of 5-hydroxytryptamine receptor 2B (P41595 whole entry): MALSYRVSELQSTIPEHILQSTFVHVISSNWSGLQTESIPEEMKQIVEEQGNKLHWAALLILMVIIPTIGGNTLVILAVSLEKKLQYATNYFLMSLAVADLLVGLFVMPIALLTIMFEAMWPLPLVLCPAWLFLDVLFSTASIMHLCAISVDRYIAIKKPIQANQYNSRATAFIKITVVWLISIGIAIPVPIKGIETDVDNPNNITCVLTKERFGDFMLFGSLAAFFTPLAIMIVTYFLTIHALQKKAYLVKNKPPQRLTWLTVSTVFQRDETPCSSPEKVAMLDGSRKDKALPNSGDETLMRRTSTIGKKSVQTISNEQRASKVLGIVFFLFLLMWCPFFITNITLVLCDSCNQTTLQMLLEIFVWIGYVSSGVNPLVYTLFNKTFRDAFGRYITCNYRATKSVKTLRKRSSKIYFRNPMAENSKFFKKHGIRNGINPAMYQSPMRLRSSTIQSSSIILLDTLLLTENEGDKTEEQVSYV

Melanocortin receptor 3 = Melanocortin receptor 3 (Homo sapiens, UniProt P41968)
Chain of Melanocortin receptor 3 (P41968 whole entry): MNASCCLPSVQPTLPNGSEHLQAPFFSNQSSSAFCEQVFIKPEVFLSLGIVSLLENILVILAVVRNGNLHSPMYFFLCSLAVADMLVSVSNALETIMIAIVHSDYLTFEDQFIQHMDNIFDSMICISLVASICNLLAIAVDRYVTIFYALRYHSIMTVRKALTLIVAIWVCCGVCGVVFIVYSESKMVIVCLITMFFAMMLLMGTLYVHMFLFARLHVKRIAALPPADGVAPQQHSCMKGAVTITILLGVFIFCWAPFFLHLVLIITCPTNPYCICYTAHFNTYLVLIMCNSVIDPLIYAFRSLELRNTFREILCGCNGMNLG

Mu-type opioid receptor = Mu-type opioid receptor (Homo sapiens, UniProt P35372); assay: biochemical; assay type: functional
Chain of Mu-type opioid receptor (P35372 whole entry): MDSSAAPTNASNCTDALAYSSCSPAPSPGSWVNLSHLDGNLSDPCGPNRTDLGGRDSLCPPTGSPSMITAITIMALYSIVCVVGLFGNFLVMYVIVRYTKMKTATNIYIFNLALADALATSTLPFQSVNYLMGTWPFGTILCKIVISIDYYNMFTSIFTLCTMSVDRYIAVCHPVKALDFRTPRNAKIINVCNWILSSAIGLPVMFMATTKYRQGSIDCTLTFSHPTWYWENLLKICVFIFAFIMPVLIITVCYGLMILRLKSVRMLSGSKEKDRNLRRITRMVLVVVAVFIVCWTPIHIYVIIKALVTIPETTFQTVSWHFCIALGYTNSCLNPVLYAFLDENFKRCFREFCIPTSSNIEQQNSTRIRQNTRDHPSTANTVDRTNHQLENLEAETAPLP

[4] = target: 3',5'-cyclic-AMP phosphodiesterase 4D (Homo sapiens, UniProt Q08499); assay type: functional
Chain of 3',5'-cyclic-AMP phosphodiesterase 4D (Q08499 whole entry): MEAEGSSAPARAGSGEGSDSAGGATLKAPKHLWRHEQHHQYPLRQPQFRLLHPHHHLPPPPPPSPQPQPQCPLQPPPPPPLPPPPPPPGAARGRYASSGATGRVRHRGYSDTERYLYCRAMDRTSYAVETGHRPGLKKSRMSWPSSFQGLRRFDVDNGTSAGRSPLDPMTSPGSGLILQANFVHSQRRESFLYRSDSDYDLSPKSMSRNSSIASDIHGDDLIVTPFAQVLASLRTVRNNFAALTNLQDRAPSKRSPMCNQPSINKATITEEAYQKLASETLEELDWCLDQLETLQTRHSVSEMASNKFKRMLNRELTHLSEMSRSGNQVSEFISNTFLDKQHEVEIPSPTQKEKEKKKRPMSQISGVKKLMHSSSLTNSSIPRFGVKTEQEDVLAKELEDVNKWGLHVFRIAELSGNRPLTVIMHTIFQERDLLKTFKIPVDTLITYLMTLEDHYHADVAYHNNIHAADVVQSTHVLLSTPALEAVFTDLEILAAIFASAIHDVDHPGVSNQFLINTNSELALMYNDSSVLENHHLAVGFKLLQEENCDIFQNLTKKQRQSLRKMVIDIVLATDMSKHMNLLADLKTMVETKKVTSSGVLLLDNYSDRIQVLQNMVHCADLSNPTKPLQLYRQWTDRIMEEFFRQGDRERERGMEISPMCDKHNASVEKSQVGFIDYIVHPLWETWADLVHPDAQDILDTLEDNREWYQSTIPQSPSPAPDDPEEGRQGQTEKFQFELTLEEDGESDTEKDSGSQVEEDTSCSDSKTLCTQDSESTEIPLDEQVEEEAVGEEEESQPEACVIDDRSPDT

[5] = target: Beta-2 adrenergic receptor (Homo sapiens, UniProt P07550); assay type: functional, cell-based
Chain of Beta-2 adrenergic receptor (P07550 whole entry): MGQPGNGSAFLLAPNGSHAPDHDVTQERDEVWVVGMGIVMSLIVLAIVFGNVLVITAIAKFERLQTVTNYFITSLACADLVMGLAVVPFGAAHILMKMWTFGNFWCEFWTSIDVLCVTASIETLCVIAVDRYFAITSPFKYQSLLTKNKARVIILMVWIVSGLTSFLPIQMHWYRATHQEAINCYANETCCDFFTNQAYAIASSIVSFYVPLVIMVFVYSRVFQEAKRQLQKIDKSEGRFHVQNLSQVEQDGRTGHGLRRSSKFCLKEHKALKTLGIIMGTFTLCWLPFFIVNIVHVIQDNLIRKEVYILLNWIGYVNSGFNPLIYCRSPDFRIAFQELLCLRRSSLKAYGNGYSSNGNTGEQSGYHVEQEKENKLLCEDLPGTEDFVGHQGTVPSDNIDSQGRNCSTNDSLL

[6] = target: T4, Gastrin/cholecystokinin type B receptor (Homo sapiens, UniProt P32239)
T4 sequence (P32239 whole entry): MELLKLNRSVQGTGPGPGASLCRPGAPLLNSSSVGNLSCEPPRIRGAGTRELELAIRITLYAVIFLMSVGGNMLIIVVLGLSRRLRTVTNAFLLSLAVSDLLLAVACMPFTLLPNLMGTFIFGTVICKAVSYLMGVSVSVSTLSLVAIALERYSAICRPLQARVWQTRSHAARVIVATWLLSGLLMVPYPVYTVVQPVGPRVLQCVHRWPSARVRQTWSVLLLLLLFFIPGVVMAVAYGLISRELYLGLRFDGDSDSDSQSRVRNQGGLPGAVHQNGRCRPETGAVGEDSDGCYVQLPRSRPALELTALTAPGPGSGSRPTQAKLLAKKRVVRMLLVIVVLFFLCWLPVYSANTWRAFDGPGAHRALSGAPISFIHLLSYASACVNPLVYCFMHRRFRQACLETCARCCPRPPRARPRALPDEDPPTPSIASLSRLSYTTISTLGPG

Histamine H3 receptor = Histamine H3 receptor (Homo sapiens, UniProt Q9Y5N1)
Chain of Histamine H3 receptor (Q9Y5N1 whole entry): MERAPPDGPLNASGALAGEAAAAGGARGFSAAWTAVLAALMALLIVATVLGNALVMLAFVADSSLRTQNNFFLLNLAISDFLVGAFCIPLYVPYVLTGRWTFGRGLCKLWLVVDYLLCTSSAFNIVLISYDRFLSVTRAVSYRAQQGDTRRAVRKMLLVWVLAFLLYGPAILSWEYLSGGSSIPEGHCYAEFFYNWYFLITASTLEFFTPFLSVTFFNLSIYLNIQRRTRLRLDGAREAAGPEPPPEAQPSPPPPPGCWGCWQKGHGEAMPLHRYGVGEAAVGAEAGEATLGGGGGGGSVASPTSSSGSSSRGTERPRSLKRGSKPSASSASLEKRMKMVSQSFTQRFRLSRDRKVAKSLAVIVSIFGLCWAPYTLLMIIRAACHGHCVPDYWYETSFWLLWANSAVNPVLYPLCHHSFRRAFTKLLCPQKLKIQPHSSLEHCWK
Also: assay procedure not described here.

Row | SMILES | AC50 (Adenosine receptor A1) | AC50 (Adenosine receptor A2a) | AC50 (Cannabinoid receptor 1) | AC50 (D(1A) dopamine receptor) | AC50 (Estrogen receptor) | AC50 [1] | AC50 [2] | AC50 [3] | AC50 (Melanocortin receptor 3) | AC50 (Mu-type opioid receptor) | AC50 [4] | AC50 [5] | AC50 [6] | AC50 (Histamine H3 receptor)
1 | CCOC(=O)O[C@]1(C(=O)COC(=O)CC)CC[C@H]2[C@@H]3CCC4=CC(=O)C=C[C@]4(C)[C@H]3[C@@H](O)C[C@@]21C [PREDNICARBATE] | > 10 µM | > 10 µM | > 10 µM | > 10 µM | > 30 µM | > 10 µM | > 10 µM | > 10 µM | > 10 µM | > 30 µM | > 30 µM | – | – | –
2 | CCN1C(=O)NC(c2ccccc2)C1=O (stereo unspecified) [ETHOTOIN] | > 30 µM | > 30 µM | – | > 30 µM | > 30 µM | > 30 µM | > 30 µM | > 30 µM | > 30 µM | > 30 µM | > 30 µM | > 30 µM | > 30 µM | > 30 µM
3 | CC(=O)OCC1=C(C(=O)O)N2C(=O)[C@@H](NC(=O)Cc3cccs3)[C@H]2SC1 [CEPHALOTHIN] | > 30 µM | > 30 µM | – | > 30 µM | – | > 30 µM | > 30 µM | > 30 µM | > 30 µM | > 30 µM | > 30 µM | > 30 µM | > 30 µM | > 30 µM
4 | CCC(=O)O[C@H](CC(=O)O)C[N+](C)(C)C [LEVOCARNITINE PROPIONATE] | > 30 µM | > 30 µM | – | > 30 µM | > 30 µM | > 30 µM | > 30 µM | > 30 µM | > 30 µM | > 30 µM | > 30 µM | > 30 µM | > 30 µM | > 30 µM
5 | O=C(O)c1nn(Cc2ccc(Cl)cc2Cl)c2ccccc12 [LONIDAMINE] | > 30 µM | > 30 µM | – | > 30 µM | > 30 µM | > 30 µM | > 30 µM | > 30 µM | > 30 µM | > 30 µM | > 30 µM | > 10 µM | > 30 µM | > 30 µM
6 | CCC(NC(C)C)C(O)c1ccc(O)c(O)c1 (stereo unspecified) [ISOETHARINE] | > 30 µM | > 30 µM | > 30 µM | > 30 µM | – | > 30 µM | > 30 µM | > 30 µM | > 30 µM | > 30 µM | > 30 µM | – | > 30 µM | > 30 µM
7 | CC1=C(C(=O)O)N2C(=O)[C@@H](NC(=O)[C@H](N)C3=CCC=CC3)[C@H]2SC1 [CEPHRADINE] | > 30 µM | > 30 µM | – | > 30 µM | > 30 µM | – | > 30 µM | > 30 µM | > 30 µM | > 30 µM | > 30 µM | > 30 µM | > 30 µM | > 30 µM
8 | CN1CCCN=C1/C=C/c1cccc(O)c1 [OXANTEL] | > 30 µM | > 30 µM | – | > 30 µM | – | > 30 µM | > 30 µM | > 30 µM | > 30 µM | > 30 µM | 17 µM | > 30 µM | > 10 µM | > 30 µM
9 | CC(=O)OCC(=O)[C@@]1(O)CC[C@H]2[C@@H]3CCC4=CC(=O)CC[C@]4(C)[C@@]3(F)[C@@H](O)C[C@@]21C [FLUDROCORTISONE ACETATE] | > 30 µM | > 30 µM | – | > 30 µM | > 30 µM | > 30 µM | – | > 30 µM | > 30 µM | > 30 µM | > 30 µM | > 30 µM | > 30 µM | > 30 µM
10 | CCC(=O)[C@@]1(C)[C@H](C)C[C@H]2[C@@H]3CCC4=CC(=O)C=C[C@]4(C)[C@H]3[C@@H](O)C[C@@]21C [RIMEXOLONE] | > 10 µM | > 10 µM | 6.91 µM | > 10 µM | > 30 µM | > 10 µM | > 10 µM | > 10 µM | > 10 µM | > 30 µM | > 30 µM | – | – | –
11 | OCC(CO)N[C@H]1C[C@](O)(CO)[C@@H](O)[C@H](O)[C@H]1O [VOGLIBOSE] | > 30 µM | > 30 µM | > 30 µM | > 30 µM | > 30 µM | – | > 30 µM | > 30 µM | > 30 µM | > 30 µM | > 30 µM | – | > 30 µM | > 30 µM
12 | COC(=O)c1ccc2c(c1)NC(=O)/C2=C(\Nc1ccc(N(C)C(=O)CN2CCN(C)CC2)cc1)c1ccccc1 [NINTEDANIB] | > 30 µM | 21 µM | – | > 30 µM | – | – | > 30 µM | > 30 µM | > 30 µM | > 30 µM | > 30 µM | > 30 µM | > 30 µM | > 30 µM
13 | O=C(O)c1ccc2nc(-c3cc(Cl)cc(Cl)c3)oc2c1 | > 30 µM | > 30 µM | 22 µM | 12 µM | > 30 µM | – | > 30 µM | > 30 µM | > 30 µM | > 30 µM | 10.3 µM | – | > 10 µM | > 30 µM
14 | COc1nc(C)nc(Cl)c1N=C1NCCN1 [MOXONIDINE] | > 30 µM | > 30 µM | – | > 30 µM | – | > 30 µM | – | > 30 µM | > 30 µM | > 30 µM | > 30 µM | > 30 µM | > 30 µM | > 30 µM
15 | Nc1nc(Cl)nc2c1ncn2[C@@H]1O[C@H](CO)[C@@H](O)[C@@H]1F [CLOFARABINE] | 2.3 µM | 22.1 µM | > 30 µM | > 30 µM | > 30 µM | > 30 µM | > 30 µM | > 30 µM | > 30 µM | > 30 µM | 0.17 µM | – | > 30 µM | > 30 µM
16 | CN(C)CCOC(=O)C(c1ccccc1)C1(O)CCCC1 (stereo unspecified) [CYCLOPENTOLATE] | > 10 µM | > 10 µM | > 10 µM | > 10 µM | > 10 µM | > 10 µM | > 10 µM | > 10 µM | > 10 µM | > 30 µM | > 30 µM | – | – | –
